According to patent publication US20140256618A1, “Haprolid and Derivatives Thereof as Inhibitors of HCV” (Twincore Zentrum Fuer Experimentelle und Klinische …, priority 2011, published 2014):

Assays:
[1] = tested on: Huh7-Lunet-hCD81-Gluc cells; assay: Cell viability by G-Luc activity in the whole life cycle assay; settings: FIG. 1
HCVTCP = assay: Preincubation experiment in the context of HCV TCP infection; type: cell-based, Hepatitis C virus; settings: HCVTCP system, FIG. 3
infectious HCV particles = assay: Influence on assembly and/or release of infectious HCV particles; type: cell-based, Hepatitis C virus
Text: (§1) Moreover, an influence of the compound on the steps leading to assembly and release of infectious HCV particles has been shown. Total production of infectious virus particles was reduced about 3-fold (FIG. 5c). […] However, this was not caused by an influence of the drug on lipoprotein secretion (ApoB/E, FIG. 6), on which HCV secretion strongly depends, nor a general influence on the secretory capacity of the cell as shown for albumin (FIG. 6).
FIGS. 5a-c show the influence on assembly and/or release.

HCV = assay: microbe, parasite or virus in culture; type: cell-based; settings: Hepatitis C virus, read-out: antiviral activity EC50
HCV RNA replication = assay: Subgenomic HCV replicon assay (influence on replication); type: cell-based, Hepatitis C virus; settings: subgenomic HCV replicon system, at non-toxic concentrations, FIG. 2
Procedure: Haprolid has been identified as a potent inhibitor of HCV. Experiments confirmed its antiviral activity at nanomolar concentrations (EC50<6 nM) with toxicity in low micromolar ranges (TC50˜0.1 μM) (FIG. 1). […] Employing HCVTCP, influences on HCV RNA replication and virus entry are quantified.

[2] = tested on: retroviral particles pseudotyped with the glycoproteins of either HCV, VSV or MLV
[3] = tested on: lipoprotein secretion (ApoB/E), albumin; assay: Secretion of lipoproteins (ApoB/E) or albumin; type: cell-based; settings: FIG. 6
Text: as §1

COC(C)CCCC1CC/C(C)=C\CC(=O)NC(Cc2ccccc2)C(=O)N(C)CC(=O)N(C)C(CC(C)C)C(=O)N2CCCC2C(=O)O1 (stereo not drawn) [Haprolid]
toxicity TC50 [1]: ~100 nM
effect of preincubation of cells or of virus compared with addition of compound during infection (HCVTCP): only preincubation of the cells, but not of the virus resulted in a comparable effect
reduction of intracellular virus titer (infectious HCV particles; FIG. 5a): 100 fold
reduction of total production of infectious virus particles (infectious HCV particles; FIG. 5c): about 3 fold
EC50 (HCV): < 6 nM
reduction of HCV RNA replication (HCV RNA replication): 5 fold
decrease of infectivity of pseudotyped retroviral particles [2]: 100-1000 fold
influence on secretion of albumin [3]: no influence
influence on secretion of lipoproteins (ApoB/E) [3]: no influence
